Patent US12570666B2, “Furoindazole derivatives” (Bayer Aktiengesellschaft, priority 2019, dated 2026)

Target: T1, human GPR84 receptor (Homo sapiens, UniProt Q9NQS5)
T1 construct: frozen aliquots prepared by acCELLerate; host or cells: CHO-K1
Assay: cAMP HTRF assay for identification of cellular GPR84 antagonists
Type: cell-based
Conditions: CHO-K1 cells stably expressing human GPR84; Forskolin + agonist 6-OAU (EC80); average or median values
Procedure, shortened: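 Forskolin-stimulated CHO-K1 cells stably expressing human GPR84, agonist-suppressed cAMP measured by HTRF (665/620 ratio) after lysis. Compounds at 11 concentrations, 20 μM to 0.07 nM, duplicate; normalized to DMSO and no-agonist controls; IC50 by 4-parameter fit.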

T1 sequence (Q9NQS5 whole entry): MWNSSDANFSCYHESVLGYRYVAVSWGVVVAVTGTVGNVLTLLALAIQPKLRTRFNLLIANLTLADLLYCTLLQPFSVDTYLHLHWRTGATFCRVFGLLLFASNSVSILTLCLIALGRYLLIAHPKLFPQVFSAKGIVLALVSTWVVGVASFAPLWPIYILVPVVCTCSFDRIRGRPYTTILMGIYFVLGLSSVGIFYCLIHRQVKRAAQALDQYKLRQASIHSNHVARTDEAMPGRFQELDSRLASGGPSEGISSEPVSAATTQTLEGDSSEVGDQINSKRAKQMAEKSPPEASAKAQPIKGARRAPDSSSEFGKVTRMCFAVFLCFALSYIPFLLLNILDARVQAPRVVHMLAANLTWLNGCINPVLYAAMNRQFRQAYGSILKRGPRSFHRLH

Compound	IC50 [nM]
Cc1c(C(=O)NC[C@@H]2CCCO2)oc2c1-c1nn(CCNC(=O)OC(C)(C)C)cc1CC2 [Example 139, tert-butyl [2-(8-methyl-7-{[(2S)-tetrahydrofuran-2-ylmethyl]carbamoyl}-4,5-dihydro-2H-furo[2,3-g]indazol-2-yl)ethyl]carbamate]	80
Cn1ccc(CNC(=O)c2oc3c(c2C(F)(F)F)-c2nn(C[C@H]4COCCO4)cc2C2(CCC2)C3)n1 [Example 270, 2′-[(2S)-1,4-dioxan-2-ylmethyl]-N-[(1-methyl-1H-pyrazol-3-yl)methyl]-8′-(trifluormethyl)-2′,5′-dihydrospiro[cyclobutan-1,4′-furo[2,3-g]indazol]-7′-carboxamide]	192
Cc1c(C(=O)NCc2cc(C3CC3)on2)oc2c1-c1nn(CC3COc4ncccc4O3)cc1CC2 (racemic) [Example 50, N-[(5-cyclopropyl-1,2-oxazol-3-yl)methyl]-2-[(2R/S)-2,3-dihydro[1,4]dioxino[2,3-b]pyridin-2-ylmethyl]-8-methyl-4,5-dihydro-2H-furo[2,3-g]indazole-7-carboxamide]	35
Cn1cnc(CNC(=O)c2oc3c(c2C(F)(F)F)-c2nn(C[C@H]4COCCO4)cc2CC3)c1 [Example 229, 2-[(2S)-1,4-Dioxan-2-ylmethyl]-N-[(1-methyl-1H-imidazol-4-yl)methyl]-8-(trifluormethyl)-4,5-dihydro-2H-furo[2,3-g]indazol-7-carboxamide]	89
Cc1c(C(=O)NC[C@@H]2CCCO2)oc2c1-c1nn(Cc3ncco3)cc1CC2 [Example 188]	223
Cc1ccc(Cn2cc3c(n2)-c2c(oc(C(=O)NC[C@@H]4CCCO4)c2C(F)(F)F)CC32CCC2)nc1 [Example 277, 2′-[(5-Methylpyridin-2-yl)methyl]-N-[(2S)-tetrahydrofuran-2-ylmethyl]-8′-(trifluormethyl)-2′,5′-dihydrospiro[cyclobutan-1,4′-furo[2,3-g]indazol]-7′-carboxamide]	8
Cc1c(C(=O)NC[C@@H]2COCCO2)oc2c1-c1nn(Cc3ccccn3)cc1C1(CCC1)C2 [Example 134]	43
C[C@@H]1Cc2oc(C(=O)NCc3ncccn3)c(C(F)(F)F)c2-c2nn(C[C@H]3COCCO3)cc21 (single isomer, unassigned) [Example 304]	13
Cc1c(C(=O)NCc2nnc[nH]2)oc2c1-c1nn(Cc3ccccn3)cc1CC2 [Example 20, 8-methyl-2-(pyridin-2-ylmethyl)-N-(4H-1,2,4-triazol-3-ylmethyl)-4,5-dihydro-2H-furo[2,3-g]indazole-7-carboxamide]	5070
C[C@@H]1Cc2oc(C(=O)NCc3cn(C)cn3)c(C(F)(F)F)c2-c2nn(C[C@H]3COCCO3)cc21 (single isomer, unassigned) [Example 314, (4R or 4S)-2-{[(2S)-1,4-dioxan-2-yl]methyl}-4-methyl-N-[(1-methyl-1H-imidazol-4-yl)methyl]-8-(trifluoromethyl)-4,5-dihydro-2H-furo[2,3-g]indazole-7-carboxamide]	40
Cc1c(C(=O)NC[C@@H]2CCCO2)oc2c1-c1nn(CC3CNC3)cc1CC2 [Example 158, 2-(azetidin-3-ylmethyl)-8-methyl-N-[(2S)-tetrahydrofuran-2-ylmethyl]-4,5-dihydro-2H-furo[2,3-g]indazole-7-carboxamide]	1550
Cc1c(C(=O)NCC2CCC(=O)O2)oc2c1-c1nn(Cc3ccccn3)cc1CC2 (racemic) [Example 39, 8-methyl-N-{[(2R/S)-5-oxotetrahydrofuran-2-yl]methyl}-2-(pyridin-2-ylmethyl)-4,5-dihydro-2H-furo[2,3-g]indazole-7-carboxamide]	960
Cc1c(C(=O)NCc2cc(C(F)(F)F)on2)oc2c1-c1nn(Cc3ccccn3)cc1CC2 [Example 25, 8-methyl-2-(pyridin-2-ylmethyl)-N-{[5-(trifluoromethyl)-1,2-oxazol-3-yl]methyl}-4,5-dihydro-2H-furo[2,3-g]indazole-7-carboxamide]	160
Cc1ncccc1Cn1cc2c(n1)-c1c(oc(C(=O)NC[C@@H]3COCCO3)c1C)CC2 [Example 74, N-[(2R)-1,4-dioxan-2-ylmethyl]-8-methyl-2-[(2-methylpyridin-3-yl)methyl]-4,5-dihydro-2H-furo[2,3-g]indazole-7-carboxamide]	160
Cc1c(C(=O)NC[C@@H]2COCCO2)oc2c1-c1nn(CCNC(=O)OC(C)(C)C)cc1CC2 [Example 140, tert-butyl [2-(7-{[(2R)-1,4-dioxan-2-ylmethyl]carbamoyl}-8-methyl-4,5-dihydro-2H-furo[2,3-g]indazol-2-yl)ethyl]carbamate]	83
Cc1ccc(Cn2cc3c(n2)-c2c(oc(C(=O)NC[C@@H]4CCCO4)c2C)CC3)nc1 [Example 64, 8-methyl-2-[(5-methylpyridin-2-yl)methyl]-N-[(2S)-tetrahydrofuran-2-ylmethyl]-4,5-dihydro-2H-furo[2,3-g]indazole-7-carboxamide]	28
C[C@@H]1Cc2oc(C(=O)NC[C@@H]3CCCO3)c(C(F)(F)F)c2-c2nn(CC3CCOCC3)cc21 [Example 264, (4 or 4S)-4-methyl-2-[(oxan-4-yl)methyl]-N-{[(2S)-oxolan-2-yl]methyl}-8-(trifluoromethyl)-4,5-dihydro-2H-furo[2,3-g]indazole-7-carboxamide]	13
O=C(NCc1cncs1)c1oc2c(c1C(F)(F)F)-c1nn(C[C@H]3COCCO3)cc1CC2 [Example 230, 2-[(2S)-1,4-Dioxan-2-ylmethyl]-N-(1,3-thiazol-5-ylmethyl)-8-(trifluormethyl)-4,5-dihydro-2H-furo[2,3-g]indazol-7-carboxamide]	881
Cc1c(C(=O)NC[C@@H]2CCCO2)oc2c1-c1nn(C[C@H]3CCCO3)cc1CC2 [Example 105, 8-methyl-2-{[(2R)-tetrahydrofuran-2-yl]methyl]-N-[(2S)-tetrahydrofuran-2-ylmethyl]-4,5-dihydro-2H-furo[2,3-g]indazole-7-carboxamide]	72
Cc1c(C(=O)NC[C@@H]2CCCO2)oc2c1-c1nn(Cc3ccc(C#N)cn3)cc1CC2 [Example 319, 2-[(5-cyanopyridin-2-yl)methyl]-8-methyl-N-{[(2S)-oxolan-2-yl]methyl}-4,5-dihydro-2H-furo[2,3-g]indazole-7-carboxamide]	1120
Cc1c(C(=O)NCc2cnoc2C2CC2)oc2c1-c1nn(Cc3ccccn3)cc1CC2 [Example 16, N-[(5-cyclopropyl-1,2-oxazol-4-yl)methyl]-8-methyl-2-(pyridin-2-ylmethyl)-4,5-dihydro-2H-furo[2,3-g]indazole-7-carboxamide]	11200
Cc1ccc(Cn2cc3c(n2)-c2c(oc(C(=O)NC[C@@H]4CCCO4)c2C(F)(F)F)CC32CC2)nc1 [Example 214, 2′-[(5-methylpyridin-2-yl)methyl]-N-{[(2S)-oxolan-2-yl]methyl}-8′-(trifluoromethyl)-2′,5′-dihydrospiro[cyclopropane-1,4′-furo[2,3-g]indazole]-7′-carboxamide]	5
Cc1cc(Cn2cc3c(n2)-c2c(oc(C(=O)NC[C@@H]4COCCO4)c2C)CC3)cc(C)n1 [Example 82, 2-[(2,6-dimethylpyridin-4-yl)methyl]-N-[(2R)-1,4-dioxan-2-ylmethyl]-8-methyl-4,5-dihydro-2H-furo[2,3-g]indazole-7-carboxamide]	440
